Results published in patent US9005917B2, “Variable color two-photon fluorescent probe, method for imaging thiol activation in mitochondrion using same, and method for manufacturing the variable color two-photon fluorescent probe” (Ajou University Industry-Academic Cooperation Foundation, priority 2011, dated 2015).

Legend:
HeLa cells = assay: Cytotoxicity, viability by CCK-8 kit; type: cell-based; conditions: incubated 2 hours
Method: The cells were incubated with SSH-Mito for 2 hours.

[1] = Measurement of water solubility by fluorescence intensity versus concentration; type: physicochemical; conditions: 30 mM MOPS, 100 mM KCl, pH 7.4; 0.2% DMSO
Method: A small amount of the two-photon fluorescent probe (SSH-Mito) prepared in Example 1 was dissolved in DMSO to prepare a stock solution (1.0×10^−2 M). The solution was diluted to 6.0×10^−3 to 6.0×10^−5 M and added to a cuvette containing 3.0 mL of a buffer (30 mM MOPS, 100 mM KCl, pH 7.4) using a microsyringe. In all cases, the concentration of DMSO in water was maintained at 0.2%. […] The maximum concentration in the linear region is determined as the solubility of the two-photon fluorescent probe.

[2] = system: thiols in rat hippocampal slices; assay: Ratiometric two-photon microscopy imaging of rat hippocampal slices
Method: (a, d) Bright-field images of the CA1 and CA3 regions. (b, e) Ratiometric TPM images of rat hippocampal slices that were (b) not treated and (e) pretreated with NEM (100 μM) for 30 minutes before labeling with SSH-Mito. Ten TPM images were accumulated along the z-axis direction at depths of about 90-190 μm (10×). (c, f) Enlarged (40×) images of the red boxes in (b) and (e) at a depth of 120 μm. The two-photon excited fluorescence (TPEF) was collected in two channels (blue=425-475 nm, yellow=525-575 nm) upon excitation at 740 nm with a femtosecond (fs) pulse. Scale bars: 300 μm (a, d) and 75 μm (c, f)).
In order to investigate the utility of two-photon fluorescent probe of the present invention in tissue imaging, rat hippocampal slices were monitored.
Since the structure of the brain tissue is known to be inhomogeneous throughout its entire depth, 10 TPM images were obtained at depths of 90-190 μm and they were combined to visualize the overall thiol distribution. […] When the tissue was treated with 100 μM NEM for 30 minutes, the ratio decreased to 0.85 (FIG. 8 (f)).

[3] = Measurement of photophysical properties in MOPS buffer; type: physicochemical; conditions: for λ(1)max, λmax of one-photon absorption spectra: MOPS buffer (30 mM MOPS, 100 mM KCl, pH 7.4); for Φδ, two-photon action cross section / λ(2)max, λmax of two-photon excitation spectra / λfl max, λmax of one-photon emission spectra / 10^−4 ε, molar extinction coefficient (in parentheses) / Φ, fluorescence quantum yield / δ, peak two-photon cross section per photon: MOPS buffer pH 7.4; for 10^−4 ε, molar extinction coefficient (in parentheses): printed as 10^−4 ε; for Φ, fluorescence quantum yield / δ, peak two-photon cross section per photon: ±15%
Method: (§1) Photophysical properties of the two-photon fluorescent probe (SSH-Mito) (Example 1) and the compound represented by Formula 6 were measured in MOPS buffer (30 mM MOPS, 100 mM KCl, pH 7.4).

thiols in HeLa cells = assay: Ratiometric two-photon microscopy imaging of thiols in HeLa cells; type: cell-based
Method: The images were acquired using 740 nm excitation and fluorescence emission windows of 425-475 nm (blue) and 525-575 nm (yellow). Scale bar: 20 μm. The cells shown are representative images obtained from repeated experiments (n=5).
It was tested if the two-photon fluorescent probe of the present invention can monitor the change of thiols in a living cell.
When the cells were pre-incubated for 1 day with α-lipolic acid which increases GSH production (FIG. 6 (b)), the Fyellow/Fblue ratio increased to 2.64. And, when treated with N-ethylmaleimide (NEM), a well-known thiol blocking agent, the Fyellow/Fblue ratio decreased to 0.77 (FIG. 6 (c)).

[4] = Thiol selectivity and pH dependence of fluorescence response in MOPS buffer
Method: White and black bars represent the relative fluorescence intensity (Fyellow/Fblue) of SSH-Mito (5 μM) in the presence of various analytes before and after addition of GSH, respectively. Each spectrum was acquired 2 hours after addition of various analytes at 37° C.
The excitation wavelength was 380 nm.
White and black bars represent the relative fluorescence intensity before and after addition of GSH, respectively.

[5] = Emission ratio change (Rmax/Rmin) before and after addition of GSH; conditions: before and 2 hours after addition of 10 mM GSH
Method: as §1

| Structure (SMILES) | viability of HeLa cells (cytotoxicity) (HeLa cells) | solubility in the buffer [1] [µM] | average emission ratio ([2]; CA1 region, depth of 120 μm, not treated) | average emission ratio ([2]; tissue treated with 100 μM NEM for 30 minutes) | λ(1)max, λmax of one-photon absorption spectra [3] [nm] | Φδ, two-photon action cross section [3] | λ(2)max, λmax of two-photon excitation spectra [3] [nm] | λfl max, λmax of one-photon emission spectra [3] [nm] | 10^−4 ε, molar extinction coefficient (in parentheses) [3] [M^−1 cm^−1] | Φ, fluorescence quantum yield [3] | δ, peak two-photon cross section per photon [3] [GM] | Fyellow/Fblue ratio (thiols in HeLa cells; HeLa cells pre-incubated for 1 day with α-lipolic acid) | Fyellow/Fblue ratio (thiols in HeLa cells; HeLa cells treated with N-ethylmaleimide (NEM)) | average emission ratio (Fyellow/Fblue) (thiols in HeLa cells; HeLa cells, TP excitation at 740 nm, no pretreatment) | selectivity for GSH over other analytes ([4]; 5 μM probe, 10 mM analytes, 30 mM MOPS buffer pH 7.4) | fluorescence response toward compounds containing thiol groups ([4]; GSH, Cys, Hcy, DTT, 2-ME, 2-AET) | effect of pH on fluorescence ([4]; absence and presence of 10 mM GSH, MOPS buffer) | fluorescence response toward analytes without thiol groups ([4]; amino acids (Glu, Ser, Val, Met, Ala, Ile), metal ions (Na+, K+, Ca+, Mg2+, Zn2+) and H2O2) | Rmax/Rmin, emission ratio (F525-575/F425-475) conversion factor, one-photon processes ([5]; one-photon) | Rmax/Rmin, emission ratio conversion factor, two-photon processes (in parentheses) ([5]; two-photon) |
| --- | --- | --- | --- | --- | --- | --- | --- | --- | --- | --- | --- | --- | --- | --- | --- | --- | --- | --- | --- | --- |
| CN(C(=O)OCCSSCCN)c1ccc2cc(-c3nc4ccc(C(=O)NCC[P+](c5ccccc5)(c5ccccc5)c5ccccc5)cc4s3)ccc2c1 [SSH-Mito] | adequate for detecting thiols in living cells | ~5.0 | 1.66 | 0.85 | 338 | 80 | 740 | 462 | 2.05 | 0.82 | 95 | 2.64 | 0.77 | 1.24 | high selectivity for GSH | strong responses | pH-insensitive at biologically relevant pH | negligible responses | 45 | 40 |
| CNc1ccc2cc(-c3nc4ccc(C(=O)NCC[P+](c5ccccc5)(c5ccccc5)c5ccccc5)cc4s3)ccc2c1.[Br-] [Compound No. 6] |  |  |  |  | 383 | 55 | 750 | 545 | 1.50 | 0.12 | 550 |  |  |  |  |  |  |  |  |  |
